Data as given in patent US11406720B2, “Fibroblast growth factor receptor 2-specific peptide reagents and methods” (THE REGENTS OF THE UNIVERSITY OF MICHIGAN, priority 2017, dated 2022).
“Also recorded” adds a separate entry of the source. Where no end group is shown, it is not given here.

Assays:
[1] = molecular target: T1, QhTERT cells that express FGFR2c (Homo sapiens, UniProt P21802); test: Competition for reagent binding with unlabeled peptide (confocal microscopy); details: unlabeled peptide 50 μM and greater (up to 500 μM) vs 0 μM; 5 μM SRR*-Cy5.5; 4° C
T1 construct: expressed in transfected cells; host or cells: QhTERT (human non-dysplastic Barrett's esophagus cells immortalized with hTert)
T1 sequence (P21802 22-821): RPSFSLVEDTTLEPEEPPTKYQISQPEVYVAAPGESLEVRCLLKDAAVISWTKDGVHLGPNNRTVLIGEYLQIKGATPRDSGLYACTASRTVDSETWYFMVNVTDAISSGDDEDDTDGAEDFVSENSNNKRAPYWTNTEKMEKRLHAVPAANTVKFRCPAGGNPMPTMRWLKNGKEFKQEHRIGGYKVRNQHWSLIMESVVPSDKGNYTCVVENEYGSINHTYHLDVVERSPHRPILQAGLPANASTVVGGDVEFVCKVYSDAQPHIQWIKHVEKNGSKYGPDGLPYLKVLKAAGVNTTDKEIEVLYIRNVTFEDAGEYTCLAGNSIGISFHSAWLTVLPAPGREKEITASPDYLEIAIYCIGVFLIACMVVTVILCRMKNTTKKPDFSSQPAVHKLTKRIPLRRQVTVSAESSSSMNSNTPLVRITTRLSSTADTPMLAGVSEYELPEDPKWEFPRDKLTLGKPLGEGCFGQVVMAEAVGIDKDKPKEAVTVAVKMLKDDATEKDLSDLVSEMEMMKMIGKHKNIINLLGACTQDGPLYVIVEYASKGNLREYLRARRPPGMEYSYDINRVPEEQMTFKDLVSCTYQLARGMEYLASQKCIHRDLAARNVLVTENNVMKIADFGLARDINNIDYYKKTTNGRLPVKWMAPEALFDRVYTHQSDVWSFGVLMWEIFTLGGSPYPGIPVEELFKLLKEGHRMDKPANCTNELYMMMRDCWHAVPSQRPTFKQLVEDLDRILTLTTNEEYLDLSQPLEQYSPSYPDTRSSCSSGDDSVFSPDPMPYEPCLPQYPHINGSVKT
Method: We administered unlabeled SRR*, and used confocal microscopy to observe competition for binding of SRR*-Cy5.5 to QhTERT cells that express FGFR2c, FIG. 3A-L. Approximately 10^3 cells were grown to ˜70% confluence on cover glass in triplicate. Unlabeled peptides at concentrations of 0, 50, 100, 150, 250, and 500 μM were incubated with the cells for 30 min at 4° C. The cells were washed and incubated with 5 μM of the target peptide for another 30 min at 4° C. The cells were washed and fixed with 4% PFA for 5 min. The cells were washed with PBS and mounted with ProLong Gold reagent containing DAPI (Invitrogen).

[2] = molecular target: T2, QhTERT cells that express FGFR2b (Homo sapiens, UniProt P21802); test: Confocal fluorescence microscopy, binding to QhTERT cells expressing FGFR2b
T2 construct: expressed in transfected cells; host or cells: QhTERT (human non-dysplastic Barrett's esophagus cells immortalized with hTert)
T2 sequence (P21802 22-822 isoform P21802-3 limits assumed): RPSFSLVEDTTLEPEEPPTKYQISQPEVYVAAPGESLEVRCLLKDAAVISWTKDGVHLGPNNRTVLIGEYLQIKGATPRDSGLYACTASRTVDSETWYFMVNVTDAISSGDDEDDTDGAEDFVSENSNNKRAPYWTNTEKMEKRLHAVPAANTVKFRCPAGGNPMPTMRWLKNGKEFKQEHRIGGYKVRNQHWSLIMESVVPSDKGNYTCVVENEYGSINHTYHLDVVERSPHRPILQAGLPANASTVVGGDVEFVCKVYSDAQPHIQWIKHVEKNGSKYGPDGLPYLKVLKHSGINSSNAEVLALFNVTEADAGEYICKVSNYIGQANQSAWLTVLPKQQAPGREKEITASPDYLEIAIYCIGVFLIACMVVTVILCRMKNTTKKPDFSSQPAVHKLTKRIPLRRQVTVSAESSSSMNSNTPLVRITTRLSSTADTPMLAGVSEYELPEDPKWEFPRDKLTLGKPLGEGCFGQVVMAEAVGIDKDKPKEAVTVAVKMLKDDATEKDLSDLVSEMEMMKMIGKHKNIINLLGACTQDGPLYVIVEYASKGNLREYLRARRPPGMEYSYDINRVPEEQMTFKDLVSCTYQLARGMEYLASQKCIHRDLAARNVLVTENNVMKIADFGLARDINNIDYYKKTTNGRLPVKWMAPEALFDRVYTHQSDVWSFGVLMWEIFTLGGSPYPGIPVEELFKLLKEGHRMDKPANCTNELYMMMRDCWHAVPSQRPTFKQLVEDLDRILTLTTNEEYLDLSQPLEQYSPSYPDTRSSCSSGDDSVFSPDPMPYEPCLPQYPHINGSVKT
From the text: (§1) All human esophagus specimens were obtained with written, informed patient consent per approval and guidelines of the University of Michigan Institutional Review Board (IRB). Human non-dysplastic Barrett's esophagus (BE) cells immortalized with hTert (QhTERT) were obtained from the American Type Culture Collection (ATCC) and cultured in keratinocyte-serum free medium containing bovine pituitary extract and human recombinant EGF (ThermoFisher #17005042). QhTERT cells with stable expression of FGFR2b or FGFR2c were provided by DGB. We cultured these cells with keratinocyte-serum free medium containing bovine pituitary extract and human recombinant EGF (ThermoFisher #17005042) and added 1 μg/mL of puromycin-dihydrochloride (Invitrogen #A11138-03). All cells were cultured at 37° C. in 5% CO2, and were passaged using 0.25% EDTA containing trypsin (Mediatech Inc). A hemocytometer was used to count the cell number. Peptide synthesis reagents were obtained from either Anaspec or AAPPTEC with the highest grade available (>99% purity) and used without further purification. Solvents and other chemical reagents were obtained from Sigma-Aldrich, unless otherwise stated.
(§2) On confocal microscopy, we validated specific peptide reagent binding to human BE cells that express FGFR2.

[3] = molecular target: T1, QhTERT cells that express FGFR2c; test: Confocal fluorescence microscopy, binding to QhTERT cells expressing FGFR2c
From the text: as §1, §2

QhTERT cells wild type = test: Confocal fluorescence microscopy, binding to wild-type QhTERT cells; parameters: species or system human
From the text: as §1, §2

[4] = molecular target: T1, QhTERT cells that express FGFR2c; test: Apparent dissociation constant by flow cytometry; format: binding; details: 0 to 200 nM, 4° C, 1 hour
Method: We measured the apparent dissociation constant kd for peptide reagent binding to cells to assess binding affinity.^45 The Cy5.5-labeled peptide reagent was serially diluted in PBS at concentrations ranging from 0 to 200 nM in 25 nM increments. QhTERT/FGFR2c cells (˜10^5) were incubated with peptide at 4° C. for 1 hour, washed with cold PBS, and the mean fluorescence intensities were measured using flow cytometry. The equilibrium dissociation constant kd=1/ka was calculated by performing a least squares fit of the data to the non-linear equation I=(I0+Imaxka[X])/([…]). I0 and Imax are the initial and maximum fluorescence intensities, corresponding to no peptide and at saturation, respectively, and [X] represents the concentration of the bound peptide reagent. Prism 5.0 software (GraphPad Inc) was used to calculate kd.

[5] = molecular target: T1, QhTERT cells that express FGFR2c; test: Apparent association time constant by flow cytometry; format: binding; details: for apparent association time constant k: 5 μM, RT, 0 to 30 min; for time scale for onset of binding: from k
Method: We measured the apparent association time constant of the peptide reagent to QhTERT/FGFR2c cells to assess binding onset.^46 Cells were grown to ˜80% confluence in 10 cm dishes, and detached with PBS-based cell dissociation buffer (Invitrogen). Cells (˜10^5) were incubated with 5 μM SRR-Cy5.5 at RT for various time intervals ranging from 0 to 30 min. The cells were centrifuged, and washed with cold PBS. Flow cytometry analysis was performed as described above, and the median fluorescence intensity (y) were measured on flow cytometry at different time points (t) using Flowjo software. The rate constant k was calculated by fitting the data to a first order kinetics model, y(t)=Imax[1−exp^(−kt)], where Imax=maximum value using Prism 5.0 software (GraphPad Inc).

[6] = system: human esophageal specimens (SQ, BE, HGD, EAC); test: Confocal microscopy staining of sections of human esophagus ex vivo; format: binding
Method: Formalin-fixed sections of human esophageal specimens were deparaffinized, and antigen retrieval was performed using standard methods. Briefly, the sections were incubated in xylene for 3 min 3×, washed with 100% ethanol for 2 min 2×, and washed with 95% ethanol for 2 min 2×. Rehydration was performed by washing in dH2O for 5 min 2×. Antigen unmasking was performed by boiling the slides in 10 mM sodium citrate buffer with 0.05% Tween at pH 6.0, and then maintaining at sub-boiling temperature for 15 min. The slides were cooled for 30 min, and the sections were washed in dH2O for 3 min 3× and in PBS for 5 min. Blocking was performed with DAKO protein blocking agent (X0909, DAKO) for 1 hour at RT. The peptides were incubated at a concentration of 1 μM for 10 min at RT. The sections were washed in PBS for 3 min 3×, and incubated with 1:1000 dilution of monoclonal anti-FGFR2 (Abcam, ab58201) overnight at 4° C.
The sections were then washed in PBS for 5 min 3×. A 1:500 dilution of AF488-labeled secondary antibody (goat anti-mouse) was added to each section and incubated for 30 min at RT. The secondary antibody solution was removed by washing with PBS for 5 min 3×. The sections were then mounted with ProLong Gold reagent containing DAPI (Invitrogen). The mean fluorescence intensities from 3 boxes (dimensions of […]) located completely within the surface epithelium of each specimen were measured. […] Serial sections were processed for routine histology (H&E), and were reviewed by an expert gastrointestinal pathologist (HDA).

[7] = system: sections of human esophageal squamous cell cancer (SCC); test: Confocal microscopy staining of human esophageal squamous cell carcinoma sections ex vivo; format: binding
From the text: We observed good co-localization of peptide reagent and antibody binding on merged images, FIG. 10C. Representative histology (H&E) for SCC is shown, FIG. 10D.

[8] = system: sections of human gastric cancer; test: Confocal microscopy staining of human gastric cancer sections ex vivo; format: binding
From the text: We observed good co-localization of peptide and antibody binding on merged images, FIG. 11C. Representative histology (H&E) for gastric cancer is shown, FIG. S6D.

[9] = system: phosphorylation of FGFR2 (p-FGFR), AKT (p-AKT) and ERK (p-ERK) in QhTERT cells that express FGFR2b; test: Effect on cell signaling, Western blot, FGFR2b cells; format: cell-based, human; details: peptide 5 or 100 μM, FGF1 100 ng/mL, 20 min, vs untreated cells
Method: (§3) QhTERT cells that overexpress either FGFR2b or FGFR2c were seeded in 12-well flat-bottom plates with 500 μL of serum-free medium for 16 hours. FGF1 (#2232-FA-025, R&D systems) was reconstituted to a concentration of 100 μg/mL using PBS, diluted with 0.1% bovine serum albumin, and added to the cells at final concentrations of 100 ng/mL for 20 min in separate wells. Heparin (#H3149-10KU, Sigma) with final concentration of 100 unit/mL was also added to increase stability. In addition, peptides at concentrations of 5 and 100 μM were incubated for 20 min in separate wells. The cells were washed with PBS and lysed in RIPA buffer containing protease inhibitors (#11836170001, Roche, Basel, Switzerland). Lysates were separated by gel electrophoresis, transferred to polyvinylidene difluoride membranes (#ISEQ00010, Millipore), and detected by immunoblotting using an enhanced chemiluminescence system (#RPN2106, GE Healthcare). Anti-FGFR2 antibody (#SC 122, Santa Cruz Biotechnology), anti-phospho-FGFR (#3471, Cell Signaling Technology), anti-AKT (#4691P, Cell Signaling Technology), anti-ERK1/2 (#4695P, Cell Signaling Technology), anti-phospho-AKT (pS473; #4060P, Cell Signaling Technology), anti-phospho-ERK1/2 (#4370P, Cell Signaling Technology), and anti-tubulin (#32-2600, Invitrogen) were used as per manufacturer's instructions.

[10] = system: phosphorylation of FGFR2 (p-FGFR), AKT (p-AKT) and ERK (p-ERK) in QhTERT cells that express FGFR2c; test: Effect on cell signaling, Western blot, FGFR2c cells; format: cell-based, human; details: peptide 5 or 100 μM, FGF1 100 ng/mL, 20 min, vs untreated cells
Method: as §3

| apparent association time constant k [5] [min⁻¹] | time scale for onset of binding [5] [min] | Compound | change in binding (mean fluorescence intensity) of SRR*-Cy5.5 on addition of unlabeled peptide [1] | binding signal on cell surface (confocal microscopy) [2] | binding signal on cell surface (confocal microscopy) [3] | binding signal on cell surface (confocal microscopy) (QhTERT cells wild type) | phosphorylation of FGFR2 (p-FGFR), AKT (p-AKT) and ERK (p-ERK) [9] | phosphorylation of FGFR2 (p-FGFR), AKT (p-AKT) and ERK (p-ERK) [10] | also measured |
| --- | --- | --- | --- | --- | --- | --- | --- | --- | --- |
|  |  | SPSRERTFRARA [SPS*, unlabeled scrambled peptide used for control, reference compound] | No significant difference; also recorded: Non-significant differences |  |  |  |  |  |  |
| 0.16 | ~6.2 | SRR*-Cy5.5: 12 amino acid sequence SRRPASFRTARE with fluorophore Cy5.5 attached via a GGGSK linker on the C-terminus (not fully specified (C-terminus)) |  | strong signal; also recorded: strong binding | strong signal; also recorded: strong binding | minimal signal |  |  | mean fluorescence intensity versus control SPS*-Cy5.5 ([2]; compared with wild-type): significantly greater; mean fluorescence intensity versus control SPS*-Cy5.5 ([3]; compared with wild-type): significantly greater; Kd [4]: 68 nM; mean target-to-background (T/B) ratio for HGD and EAC versus BE and SQ ([6]; 3 boxes of 30×30 μm^2): significantly higher; staining (fluorescence intensity) of section ([6]; Barrett's esophagus (BE)): minimal fluorescence intensity; also recorded: minimal staining; staining (fluorescence intensity) of section ([6]; esophageal adenocarcinoma (EAC)): strong signal; also recorded: strong binding; staining (fluorescence intensity) of section ([6]; high-grade dysplasia (HGD)): strong signal; also recorded: strong binding; mean fluorescence intensity from HGD and EAC compared with BE ([6]; n=28, 33, 22, 17 specimens of SQ, BE, HGD, EAC): significantly greater; staining (fluorescence intensity) of section ([6]; squamous (SQ)): minimal fluorescence intensity; also recorded: minimal staining; staining (fluorescence intensity) of section ([7]; human esophageal SCC): strong fluorescence intensity; also recorded: strong binding; staining (fluorescence intensity) of section ([7]; normal human esophagus): minimal fluorescence intensity; also recorded: minimal staining; mean fluorescence intensity from SCC versus normal ([7]; paired, two-sided t-test): significantly greater; staining (fluorescence intensity) of section ([8]; human gastric cancer): strong fluorescence intensity; also recorded: strong binding; staining (fluorescence intensity) of section ([8]; normal human stomach): minimal fluorescence intensity; also recorded: minimal staining; mean fluorescence intensity from gastric cancer versus normal ([8]; paired, two-sided t-test): significantly greater |
| 0.16 | 6.2 | C[C@H](NC(=O)[C@@H](NC(=O)[C@H](CCCNC(=N)N)NC(=O)[C@H](Cc1ccccc1)NC(=O)[C@H](CO)NC(=O)[C@H](C)NC(=O)[C@@H]1CCCN1C(=O)[C@H](CCCNC(=N)N)NC(=O)[C@H](CCCNC(=N)N)NC(=O)[C@@H](N)CO)[C@@H](C)O)C(=O)N[C@@H](CCCNC(=N)N)C(=O)N[C@@H](CCC(=O)O)C(N)=O (relative stereo) [SRR*, SRRPASFRTARE] | significant reduction; also recorded: significant decrease |  |  |  | no obvious change | no obvious change |  |
|  |  | FGF1: FGF1 (#2232-FA-025, R&D systems), positive control that binds FGFR2b and FGFR2c [reference compound] |  |  |  |  | to some extent; also recorded: shows phosphorylation activity | strong phosphorylation activity; also recorded: shows phosphorylation activity |  |
|  |  | SPS*-Cy5.5: scrambled sequence SPSRERTFRARA for control, labeled with Cy5.5 via a GGGSK linker (SPSRERTFRARAGGGS-{K(Cy5.5)-NH2}) [reference compound] |  | Minimal binding; also recorded: Minimal signal | Minimal binding; also recorded: Minimal signal | Minimal binding; also recorded: Minimal signal |  |  |  |
